# Patent US20250144186A1, “NOVEL THERAPEUTIC USES OF GARDNERELLA ENDOLYSINS” (priority 2022, published 2025)
# Where two headings read alike, the source gives them in different places.
# How the values were obtained:
# [1] = test system: Gardnerella swidsinskii; test: microbe, parasite or virus in culture; format: cell-based; conditions: Gardnerella swidsinskii
# Experimental: (§1) The minimum inhibitory concentration (MIC), which is a standard measure of the activity of antimicrobials, was determined according to the Clinical and Laboratory Standards Institute protocol (2018) Methods for Antimicrobial Susceptibility Testing of Anaerobic Bacteria (Carpenter et al., 2018). […] Controls for growth in the absence of antimicrobials were also included. OD600 was recorded by a microplate reader (Tecan, Grodig, Austria) after incubation at 37° C. for 48 h or, for some fast-growing strains, after incubation for 24 h. Absence of growth was defined as OD600≤0.14. […] MIC readout and MBC99.5 spotting were performed after 72 h incubation for H2B10B11.
# (§2) However, topical intravaginal antibiotic administration is recommended for BV therapy, which allows to reach concentrations of active ingredients in the mg/mL range. […] Abbreviations: n.d., not determined; SJHB, St. Jan Hospital Bruges.
# (§3) MIC90 is defined as the MIC value for 90% of the tested strains. For PM-477 (H2B10), the resistance breakpoint is not defined, therefore a “% resistant” is not defined (n.d.).
# [2] = test system: Gardnerella vaginalis; test: microbe, parasite or virus in culture; format: cell-based; conditions: Gardnerella vaginalis
# Experimental: as §1, §2, §3
# [3] = test system: Gardnerella leopoldii; test: MIC / MBC99.5 assessment in suspension; format: cell-based; conditions: Gardnerella leopoldii; for MIC: read-out: MIC; for MBC: read-out: MBC99.5
# Experimental: as §1, §2, §3
# [4] = test system: Gardnerella piotii; test: MIC / MBC99.5 assessment in suspension; format: cell-based; conditions: Gardnerella piotii; for MIC: read-out: MIC
# Experimental: as §1, §2, §3
# [5] = test system: All Gardnerella; test: MIC assessment in suspension, panel of 22 strains; format: cell-based, Gardnerella spp.
# Experimental: as §1, §2, §3
# [6] = test system: Gardnerella strains from vaginal swabs of BV patients; test: MIC and MBC99.5 on 18 in-house BV patient isolates; format: cell-based, Gardnerella spp.
# Experimental: as §1
# [7] = test system: Gardnerella type strains and patient isolates; test: MIC and MBC99.5 on about 100 type strains and patient isolates of various origins; format: cell-based, Gardnerella spp.
# Experimental: as §1
# MIC and MBC99.5 of H2B10B11 on a panel of about 100 Gardnerella type strains and patient isolates from various geographic origins were determined following the CLSI protocol. […] For a subset of fast-growing strains thereof and for some additional strains, MIC determination was performed after 48 h of incubation to bridge the results to earlier assessed MIC values (FIG. 6). In total, MIC was determined for 104 different strains (the MIC of 15 strains was determined both, after 48 h and 72 h). […] The number of strains in each group is stated on the right site of the graph.
# [8] = G. swidsinskii (BV7) UGent BV7.1, suspension
# [9] = G. swidsinskii (Gs23) GS 10234, suspension
# [10] = G. swidsinskii (Gs24) GS 9838-1(T), suspension
# [11] = read-out: MBC99.5, G. swidsinskii (BV7) UGent BV7.1
# [12] = read-out: MBC99.5, G. swidsinskii (Gs23) GS 10234
# [13] = read-out: MBC99.5, G. swidsinskii (Gs24) GS 9838-1(T)
# [14] = ATCC14018, 24 h, read-out: MBC99.5, G. vaginalis (Gv9) ATCC 14018(T), reduces CFU by 99.5% within 24 h
# [15] = ATCC14018, G. vaginalis (Gv9) ATCC 14018(T), suspension
# [16] = G. vaginalis (BV50) UGent BV50.1, suspension
# [17] = G. vaginalis (FB049) UGent FB049-01, suspension
# [18] = read-out: MBC99.5, G. vaginalis (BV111) UGent BV111.5
# [19] = read-out: MBC99.5, G. vaginalis (FB049) UGent FB049-01
# [20] = G. leopoldii (BV13) UGent BV13.2, suspension
# [21] = G. leopoldii (BV13) UGent BV13.2
# [22] = G. leopoldii (Gl11) UGent 09.48, suspension
# [23] = G. leopoldii (Gl11) UGent 09.48
# [24] = G. piotii (FB041) UGent FB041, suspension
# [25] = G. piotii (Gp17) UGent 18.01(T)
# [26] = G. piotii (Gp17) UGent 18.01(T), suspension
# [27] = G. piotii (Gp22) UGent 21.28, suspension
# [28] = G. piotii (P80275) UGent P80275
# [29] = G. piotii (P80275) UGent P80275, suspension
# [30] = MIC after 72 h, unpaired t-test of log2-transformed data
molecule,measurement,setting,value
"CCC[C@@H]1C[C@@H](C(=O)N[C@@H]([C@H]2O[C@H](SC)[C@H](O)[C@@H](O)[C@H]2O)[C@H](C)Cl)N(C)C1 [CLI, clindamycin]",MIC,[1],0.125 µg/mL
same,MIC90,[1],0.5 µg/mL
same,MIC,[1]; [8],0.5 µg/mL
same,MIC,[1]; [9],0.25 µg/mL
same,MIC,[1]; [10],< 0.06 µg/mL
same,MIC Range,[1]; N=4 strains,<0.06 to 0.5 µg/mL
same,MBC,[1]; [11],1 µg/mL
same,MBC,"[1]; read-out: MBC99.5, G. swidsinskii (BV139) UGent BV139.3",0.25 µg/mL
same,MBC,[1]; [12],0.25 µg/mL
same,MBC,[1]; [13],0.5 µg/mL
same,MIC90,[2],0.5 µg/mL
same,MBC,[2]; [14],0.5 µg/mL
same,MIC,[2]; [15],0.25 µg/mL
same,MIC,[2]; [16],0.25 µg/mL
same,MIC,[2]; [17],0.5 µg/mL
same,MIC Range,[2]; N=8 strains,<0.06 to 0.5 µg/mL
same,MBC,"[2]; read-out: MBC99.5, G. vaginalis (BV50) UGent BV50.1",0.5 µg/mL
same,MBC,[2]; [18],2 µg/mL
same,MBC,[2]; [19],1 µg/mL
same,MIC,[3]; [20],0.5 µg/mL
same,MBC,[3]; [21],1 µg/mL
same,MIC,"[3]; G. leopoldii (BV217) UGent BV217.1, suspension",0.5 µg/mL
same,MBC,[3]; G. leopoldii (BV217) UGent BV217.1,1 µg/mL
same,MIC,[3]; [22],0.5 µg/mL
same,MBC,[3]; [23],1 µg/mL
same,N resistant,"[3]; N=3, resistance ≥32 μg/mL MDZ, ≥8 μg/mL CLI",0
same,MIC Range,[3]; N=3 strains,0.5 µg/mL
same,MIC90,"[3]; N=3 strains, read-out: MIC90",0.5 µg/mL
same,MBC,[4]; G. piotii (BV049) UGent BV049.1,0.125 µg/mL
same,MIC,"[4]; G. piotii (BV140) UGent BV140.2, suspension",2 µg/mL
same,MBC,[4]; G. piotii (BV154) UGent BV154.1,0.5 µg/mL
same,MIC,"[4]; G. piotii (BV154) UGent BV154.1, suspension",0.5 µg/mL
same,MBC,[4]; G. piotii (FB041) UGent FB041,2 µg/mL
same,MIC,[4]; [24],1 µg/mL
same,MBC,[4]; [25],1 µg/mL
same,MIC,[4]; [26],0.5 µg/mL
same,MBC,[4]; G. piotii (Gp22) UGent 21.28,0.5 µg/mL
same,MIC,[4]; [27],0.25 µg/mL
same,MBC,[4]; [28],1 µg/mL
same,MIC,[4]; [29],0.5 µg/mL
same,N resistant,"[4]; N=7, resistance ≥32 μg/mL MDZ, ≥8 μg/mL CLI",0
same,MIC Range,[4]; N=7 strains,0.125-2^ μg/mL
same,MIC90,"[4]; N=7 strains, read-out: MIC90",2 µg/mL
same,MIC,"[4]; G. piotii (BV049) UGent BV049.1, suspension",0.125 µg/mL
same,MBC,[4]; G. piotii (BV140) UGent BV140.2,64 µg/mL
same,N resistant,"[5]; N=22, resistance ≥32 μg/mL MDZ, ≥8 μg/mL CLI",0
same,MIC Range,[5]; N=22 strains,<0.06-2^ μg/mL
same,MIC90,"[5]; N=22 strains, read-out: MIC90",0.5 µg/mL
"CCS(=O)(=O)CCn1c([N+](=O)[O-])cnc1C [TDZ, tinidazole]",MIC,[1]; [8],128 µg/mL
same,MIC,[1]; [9],> 128 µg/mL
same,MIC,[1]; [10],> 128 µg/mL
same,MBC,[1]; [11],> 128 µg/mL
same,MBC,[1]; [12],> 128 µg/mL
same,MBC,[1]; [13],> 128 µg/mL
same,MBC,[2]; [14],> 128 µg/mL
same,MIC,[2]; [15],128 µg/mL
same,MIC,[2]; [16],64 µg/mL
same,MIC,[2]; [17],8 µg/mL
same,MIC,"[2]; G. vaginalis (FB061) UGent FB061-03, suspension, read-out: MIC",4 µg/mL
same,MBC,"[2]; G. vaginalis (FB061) UGent FB061-03, read-out: MBC99.5",32 µg/mL
same,MIC,"[2]; G. vaginalis (Gv1) UGent 09.07, suspension, read-out: MIC",> 128 µg/mL
same,MBC,"[2]; G. vaginalis (Gv1) UGent 09.07, read-out: MBC99.5",> 128 µg/mL
same,MIC,"[2]; G. vaginalis (Gv5) UGent 09.01, suspension, read-out: MIC",4 µg/mL
same,MBC,"[2]; G. vaginalis (Gv5) UGent 09.01, read-out: MBC99.5",8 µg/mL
same,MIC,"[2]; G. vaginalis (Gv8) UGent 25.49, suspension, read-out: MIC",4 µg/mL
same,MBC,"[2]; G. vaginalis (Gv8) UGent 25.49, read-out: MBC99.5",32 µg/mL
same,MBC,[2]; [18],128 µg/mL
same,MBC,[2]; [19],64 µg/mL
same,MIC,[3]; [20],> 128 µg/mL
same,MBC,[3]; [21],128 µg/mL
same,MIC,[3]; [22],128 µg/mL
same,MBC,[3]; [23],> 128 µg/mL
same,MBC,[4]; G. piotii (FB041) UGent FB041,128 µg/mL
same,MIC,[4]; [24],64 µg/mL
same,MBC,[4]; [25],> 128 µg/mL
same,MIC,[4]; [26],64 µg/mL
same,MBC,[4]; G. piotii (Gp22) UGent 21.28,> 128 µg/mL
same,MIC,[4]; [27],> 128 µg/mL
same,MBC,[4]; [28],128 µg/mL
same,MIC,[4]; [29],32 µg/mL
"H2B10B11: recombinant endolysin, SEQ ID NO: 37; differs from H2B10 in one amino acid exchange in one of the binding domains (protein, H2B10B11) MSKRGIDVSEWQGDIDFNAVKASGVEFVIIRAGYGIGCKDKWFEQNYRKAKTCGLDVGAYWYSYANSGFEAAEEAQSCVNMLSGKSFEYPVYFDLEEKSQLNRGRAFCDSLITGFCNKLESCGYYAGFYTSLSTANNLVSAHVRNRYALWIAQWNTHCSYQGSYGLWQYSSSGSVPGVAGRVDMDYAYVDYPSIIKNVGLNGYKNGGSYTAPQISSIDEVAREVINGDWGNGNERKQRLTSAGYDYASVQNKVNELLGVKAYRKSVDELAREVIRGTWGNGSTRKQRLTQAGYDYDAVQKRVNELL",median MBC99.5,[6]; 18 in-house BV patient isolates,8 µg/mL
same,median MIC,"[6]; 18 in-house BV patient isolates, H2B10B11 read after 72 h",2 µg/mL
same,MIC90,[6]; panel of 18 BV patient isolates,4.4 µg/mL
same,Lytic effect on MDZ-resistant Gardnerella isolates (FIG. 5),[6]; panel of n=18 BV patient isolates,maintained
same,inhibiting concentration (MIC),[6]; the 10 MDZ-resistant isolates of the panel of 18,4 to 8 µg/mL
same,Susceptibility of BV patient isolates of various origins (FIG. 6),[7],susceptible
same,"MIC and MBC99.5 values, readout after 48 h compared to 72 h",[7]; 15 strains determined both after 48 h and 72 h,one concentration lower
same,difference between the MICs of G. vaginalis and G. leopoldii/swidsinskii,[7]; [30],no significant difference
same,difference in susceptibility between isolates from African and European BV patients,[7]; [30],no significant difference
